Here are results for ten compounds from patent publication US6806273B1, “Compounds” (AstraZeneca AB, priority 1998, dated 2004).

SMILES strings stand for the structures.

For orientation: melting point means the temperature, or range, at which the solid turns liquid.

Compound `CCCCCSc1nc(NC(CC)CO)c2sc(N)nc2n1` (racemic) [Example 6, (±)-2-[[2-Amino-5-(pentylthio)thiazolo[4,5-d]pyrimidin-7-yl]amino]-1-butanol] had a melting point of 151 to 154 °C.

With `O=c1[nH]c(SCc2cccc(Oc3ccccc3)c2)nc2ncsc12` [Example 4, 5-[[(3-Phenoxyphenyl)methyl]thio]thiazolo[4,5-d]pyrimidin-7(4H)-one], the melting point is 197 to 198 °C.

`Nc1nc2nc(SCc3cccc(Oc4ccccc4)c3)[nH]c(=O)c2s1` [Example 5, 2-Amino-5-[[(3-phenoxyphenyl)methyl]thio]thiazolo[4,5-d]pyrimidin-7(4H)-one] registered a melting point of 266 to 269 °C.

`CCCCCSc1nc(NCCO)c2sc(N)nc2n1` [Example 7, 2-[[2-Amino-5-(pentylthio)thiazolo[4,5-d]pyrimidin-7-yl]amino]ethanol]: the melting point lay in the range of 192 to 195 °C.

For `CCCCCSc1nc2ncsc2c(=O)[nH]1` [Example 8, 5-(Pentylthio)thiazolo[4,5-d]pyrimidin-7(4H)-one], the melting point was in the range of 208 to 209 °C.

For `CCCCCSc1nc2nc(Br)sc2c(=O)[nH]1` [Example 11, 2-Bromo-5-(pentylthio)thiazolo[4,5-d]pyrimidin-7(4H)-one], the melting point was 189 to 191 °C.

Turning to `CC[C@H](CO)Nc1nc(SCc2cccc(Oc3ccccc3)c2)nc2nc(N)sc12` [Example 111, (2R)-2-[[2-Amino-5-[[(3-phenoxyphenyl)methyl]thio]thiazolo[4,5-d]pyrimidin-7-yl]amino]-1-butanol], the melting point was in the range of 108 to 111 °C.

The compound `CC[C@@H](CO)Nc1nc(SCc2cccc(Oc3ccccc3)c2)nc2nc(N)sc12` [Example 112, (2S)-2-[[2-Amino-5-[[(3-phenoxyphenyl)methyl]thio]thiazolo[4,5-d]pyrimidin-7-yl]amino]-1-butanol] yielded a melting point of 111 to 114 °C.

Turning to `Nc1nc2nc(SCc3cccc(Oc4ccccc4)c3)nc(NC(CO)CO)c2s1` [Example 114, 2-[[2-Amino-5-[[(3-phenoxyphenyl)methyl]thio]thiazolo[4,5-d]pyrimidin-7-yl]amino]-1,3-propanediol], the melting point was in the range of 220 to 222 °C.

Regarding `CC(C)(CO)Nc1nc(SCc2cccc(Oc3ccccc3)c2)nc2nc(N)sc12` [Example 115, 2-[[2-Amino-5-[[(3-phenoxyphenyl)methyl]thio]thiazolo[4,5-d]pyrimidin-7-yl]amino]-2-methyl-1-propanol], the melting point fell in the range of 126 to 130 °C.
